Test results reported in paper PMC6017976, “Enzyme Kinetics and Molecular Docking Studies on Cytochrome 2B6, 2C19, 2E1, and 3A4 Activities by Sauchinone” (Molecules : A Journal of Synthetic Chemistry and Natural …, 2018).
Values joined by “and” are separate entries in the source; they are usually repeats but may differ in a detail not shown here. Identical values can stand only once.

Columns and labels:
[1] = molecular target: T1, CYP2D6 (Homo sapiens, UniProt P10635); experiment: Reversible inhibition (RI) of CYP2D6 activity in HLMs (cocktail probe assay); format: in vitro ADME; conditions: 5 μM dextromethorphan, 30 min incubation
T1 construct: pooled human liver microsomes from a mixed pool of 50 donors; tissue BD Gentest Co. 452156; host or cells: human liver microsomes, pool of 50 donors

[2] = molecular target: T2, CYP2C19 (Homo sapiens, UniProt P33261); experiment: Time-dependent inhibition (TDI) IC50 shift assay on CYP2C19 in HLMs; format: in vitro ADME; conditions: for IC50: HLMs, 10 min incubation
T2 construct: pooled human liver microsomes from a mixed pool of 50 donors; tissue BD Gentest Co. 452156; host or cells: human liver microsomes, pool of 50 donors

[3] = molecular target: T3, CYP3A4 (Homo sapiens, UniProt P08684); experiment: Enzyme kinetic assay (Dixon plot, Ki) for CYP3A4 in HLMs; format: in vitro ADME
T3 construct: pooled human liver microsomes from a mixed pool of 50 donors; tissue BD Gentest Co. 452156; host or cells: human liver microsomes, pool of 50 donors
Procedure: (§1) Based on IC50 values, the Kis of sauchinone for CYP2B6, 2C19, 2E1, and 3A4 were determined. Different concentrations (20, 50, and 200 μM) of sauchinone were used. Other procedures were similar to those mentioned above regarding the reversible inhibitory effects of sauchinone. The inhibitory characteristics of sauchinone were initially estimated by nonlinear least squares regression analysis. Its Ki values were determined by Dixon plots.

[4] = molecular target: T1, CYP2D6; experiment: Time-dependent inhibition (TDI) IC50 shift assay on CYP2D6 in HLMs; format: in vitro ADME
[5] = molecular target: T2, CYP2C19; experiment: Reversible inhibition (RI) of CYP2C19 activity in HLMs (cocktail probe assay); format: in vitro ADME; conditions: S-mephenytoin hydroxylation, 100 μM S-mephenytoin, 30 min incubation
[6] = molecular target: T4, CYP2E1 (Homo sapiens, UniProt P05181); experiment: Time-dependent inhibition (TDI) IC50 shift assay on CYP2E1 in HLMs; format: in vitro ADME; conditions: for IC50: HLMs, 10 min incubation
T4 construct: pooled human liver microsomes from a mixed pool of 50 donors; tissue BD Gentest Co. 452156; host or cells: human liver microsomes, pool of 50 donors

[7] = molecular target: T5, CYP2C9 (Homo sapiens, UniProt P11712); experiment: Reversible inhibition (RI) of CYP2C9 activity in HLMs (cocktail probe assay); format: in vitro ADME; conditions: 100 μM tolbutamide, 30 min incubation
T5 construct: pooled human liver microsomes from a mixed pool of 50 donors; tissue BD Gentest Co. 452156; host or cells: human liver microsomes, pool of 50 donors

[8] = molecular target: T6, CYP2B6 (Homo sapiens, UniProt P20813); experiment: Reversible inhibition (RI) of CYP2B6 activity in HLMs (cocktail probe assay); format: in vitro ADME; conditions: bupropion hydroxylation, 50 μM bupropion, 30 min incubation
T6 construct: pooled human liver microsomes from a mixed pool of 50 donors; tissue BD Gentest Co. 452156; host or cells: human liver microsomes, pool of 50 donors
T6 sequence (P20813 1-491): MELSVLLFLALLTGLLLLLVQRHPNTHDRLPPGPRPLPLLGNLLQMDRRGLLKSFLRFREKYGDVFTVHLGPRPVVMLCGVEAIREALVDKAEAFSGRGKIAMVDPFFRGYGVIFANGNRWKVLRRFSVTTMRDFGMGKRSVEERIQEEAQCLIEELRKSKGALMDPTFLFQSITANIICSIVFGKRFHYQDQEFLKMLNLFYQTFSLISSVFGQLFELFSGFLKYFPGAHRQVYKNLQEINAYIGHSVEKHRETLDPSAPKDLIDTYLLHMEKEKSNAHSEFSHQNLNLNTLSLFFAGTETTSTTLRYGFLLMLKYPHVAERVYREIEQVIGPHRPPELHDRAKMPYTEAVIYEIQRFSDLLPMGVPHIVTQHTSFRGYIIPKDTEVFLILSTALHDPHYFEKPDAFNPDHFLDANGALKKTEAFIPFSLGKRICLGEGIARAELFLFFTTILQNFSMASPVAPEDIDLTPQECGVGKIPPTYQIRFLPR

[9] = molecular target: T7, CYP2A6 (Homo sapiens, UniProt P11509); experiment: Time-dependent inhibition (TDI) IC50 shift assay on CYP2A6 in HLMs; format: in vitro ADME; parameters: pooled human liver microsomes from a mixed pool of 50 donors; tissue BD Gentest Co. 452156; host or cells: human liver microsomes, pool of 50 donors; conditions: 10 min incubation
T7 sequence (P11509 1-494): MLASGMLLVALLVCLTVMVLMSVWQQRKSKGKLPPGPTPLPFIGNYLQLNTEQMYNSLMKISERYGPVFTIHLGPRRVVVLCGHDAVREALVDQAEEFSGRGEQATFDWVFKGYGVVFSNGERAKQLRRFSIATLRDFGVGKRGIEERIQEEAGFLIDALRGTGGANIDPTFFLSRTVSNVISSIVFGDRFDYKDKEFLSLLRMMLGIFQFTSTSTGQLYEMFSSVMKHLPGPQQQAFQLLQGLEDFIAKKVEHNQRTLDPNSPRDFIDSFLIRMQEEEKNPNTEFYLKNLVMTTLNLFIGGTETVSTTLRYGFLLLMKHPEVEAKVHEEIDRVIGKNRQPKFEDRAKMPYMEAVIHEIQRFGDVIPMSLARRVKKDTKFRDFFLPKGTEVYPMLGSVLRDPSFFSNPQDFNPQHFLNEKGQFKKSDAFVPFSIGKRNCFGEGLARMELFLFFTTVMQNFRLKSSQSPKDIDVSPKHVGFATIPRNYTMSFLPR

[10] = molecular target: T8, CYP1A2 (Homo sapiens, UniProt P05177); experiment: Time-dependent inhibition (TDI) IC50 shift assay on CYP1A2 in HLMs; format: in vitro ADME; parameters: […]; tissue BD Gentest Co. 452156; conditions: 10 min incubation
T8 sequence (P05177 1-516): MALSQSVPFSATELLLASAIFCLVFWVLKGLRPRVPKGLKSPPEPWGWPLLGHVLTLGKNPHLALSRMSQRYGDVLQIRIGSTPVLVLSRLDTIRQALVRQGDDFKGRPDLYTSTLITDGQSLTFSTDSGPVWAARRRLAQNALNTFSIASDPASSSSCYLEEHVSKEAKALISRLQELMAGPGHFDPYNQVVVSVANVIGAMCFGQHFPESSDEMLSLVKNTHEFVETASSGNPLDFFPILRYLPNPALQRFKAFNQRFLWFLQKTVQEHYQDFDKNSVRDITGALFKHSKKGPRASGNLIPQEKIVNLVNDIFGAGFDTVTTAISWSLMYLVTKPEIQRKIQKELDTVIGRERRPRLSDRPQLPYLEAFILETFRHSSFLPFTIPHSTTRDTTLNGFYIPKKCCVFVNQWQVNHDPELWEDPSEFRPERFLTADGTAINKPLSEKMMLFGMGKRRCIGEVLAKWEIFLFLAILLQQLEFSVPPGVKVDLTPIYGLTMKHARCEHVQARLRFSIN

[11] = molecular target: T3, CYP3A4; experiment: Reversible inhibition (RI) of CYP3A4 activity in HLMs (cocktail probe assay); format: in vitro ADME; conditions: testosterone hydroxylation, 50 μM testosterone, 30 min incubation
[12] = molecular target: T4, CYP2E1; experiment: Enzyme kinetic assay (Dixon plot, Ki) for CYP2E1 in HLMs; format: in vitro ADME
Procedure: as §1

[13] = molecular target: T6, CYP2B6; experiment: Time-dependent inhibition (TDI) IC50 shift assay on CYP2B6 in HLMs; format: in vitro ADME; conditions: for IC50: HLMs, 10 min incubation
[14] = molecular target: T8, CYP1A2; experiment: Reversible inhibition (RI) of CYP1A2 activity in HLMs (cocktail probe assay)
[15] = molecular target: T2, CYP2C19; experiment: Enzyme kinetic assay (Dixon plot, Ki) for CYP2C19 in HLMs; format: in vitro ADME
Procedure: as §1

[16] = molecular target: T6, CYP2B6; experiment: Enzyme kinetic assay (Dixon plot, Ki) for CYP2B6 in HLMs; format: in vitro ADME
Procedure: as §1

[17] = molecular target: T5, CYP2C9; experiment: Time-dependent inhibition (TDI) IC50 shift assay on CYP2C9 in HLMs; format: in vitro ADME; conditions: 10 min incubation
[18] = molecular target: T7, CYP2A6; experiment: Reversible inhibition (RI) of CYP2A6 activity in HLMs (cocktail probe assay)
[19] = molecular target: T3, CYP3A4; experiment: Time-dependent inhibition (TDI) IC50 shift assay on CYP3A4 in HLMs; format: in vitro ADME; conditions: for IC50: HLMs, 10 min incubation
[20] = molecular target: T4, CYP2E1; experiment: Reversible inhibition (RI) of CYP2E1 activity in HLMs (cocktail probe assay); format: in vitro ADME; conditions: chlorzoxazone hydroxylation, 50 μM chlorzoxazone, 30 min incubation

T2 sequence (P33261 whole entry): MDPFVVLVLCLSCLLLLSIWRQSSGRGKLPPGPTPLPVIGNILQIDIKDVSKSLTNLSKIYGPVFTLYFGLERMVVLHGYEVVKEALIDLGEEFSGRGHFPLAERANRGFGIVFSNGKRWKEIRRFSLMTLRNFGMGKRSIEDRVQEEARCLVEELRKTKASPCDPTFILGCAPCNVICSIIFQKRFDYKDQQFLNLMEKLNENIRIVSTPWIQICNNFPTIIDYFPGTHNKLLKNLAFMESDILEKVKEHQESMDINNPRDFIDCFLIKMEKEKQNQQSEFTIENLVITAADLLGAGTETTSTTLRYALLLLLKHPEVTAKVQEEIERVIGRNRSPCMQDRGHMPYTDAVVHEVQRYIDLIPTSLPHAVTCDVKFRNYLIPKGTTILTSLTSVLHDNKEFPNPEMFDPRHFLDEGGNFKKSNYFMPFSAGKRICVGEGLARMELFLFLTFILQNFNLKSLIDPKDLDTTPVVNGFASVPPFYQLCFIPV
T3 sequence (P08684 whole entry): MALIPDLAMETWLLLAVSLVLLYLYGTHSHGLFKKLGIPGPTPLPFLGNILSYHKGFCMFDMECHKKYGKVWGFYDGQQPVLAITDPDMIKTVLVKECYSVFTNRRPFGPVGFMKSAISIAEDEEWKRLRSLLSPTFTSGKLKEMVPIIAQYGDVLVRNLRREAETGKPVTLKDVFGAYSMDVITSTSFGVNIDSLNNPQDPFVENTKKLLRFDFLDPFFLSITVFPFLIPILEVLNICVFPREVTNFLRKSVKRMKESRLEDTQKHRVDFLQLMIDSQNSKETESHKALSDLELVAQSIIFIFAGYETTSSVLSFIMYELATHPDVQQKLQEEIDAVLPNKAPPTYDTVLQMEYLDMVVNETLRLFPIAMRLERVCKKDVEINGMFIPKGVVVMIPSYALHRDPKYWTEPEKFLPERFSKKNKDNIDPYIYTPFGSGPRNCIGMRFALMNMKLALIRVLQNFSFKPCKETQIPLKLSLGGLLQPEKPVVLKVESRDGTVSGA
T5 sequence (P11712 whole entry): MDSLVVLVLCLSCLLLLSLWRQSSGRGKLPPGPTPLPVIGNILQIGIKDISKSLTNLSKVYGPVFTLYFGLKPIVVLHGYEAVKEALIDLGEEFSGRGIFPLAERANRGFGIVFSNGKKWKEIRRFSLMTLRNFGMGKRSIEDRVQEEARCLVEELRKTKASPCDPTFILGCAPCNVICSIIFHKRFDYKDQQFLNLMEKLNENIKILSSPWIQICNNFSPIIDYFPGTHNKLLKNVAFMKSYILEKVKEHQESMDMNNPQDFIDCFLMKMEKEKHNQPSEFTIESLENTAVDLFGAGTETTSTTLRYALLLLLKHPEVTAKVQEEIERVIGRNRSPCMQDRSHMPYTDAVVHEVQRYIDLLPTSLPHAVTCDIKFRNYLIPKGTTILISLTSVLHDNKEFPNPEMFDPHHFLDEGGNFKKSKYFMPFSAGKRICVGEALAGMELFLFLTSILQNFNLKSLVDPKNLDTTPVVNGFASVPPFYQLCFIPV
T4 sequence (P05181 whole entry): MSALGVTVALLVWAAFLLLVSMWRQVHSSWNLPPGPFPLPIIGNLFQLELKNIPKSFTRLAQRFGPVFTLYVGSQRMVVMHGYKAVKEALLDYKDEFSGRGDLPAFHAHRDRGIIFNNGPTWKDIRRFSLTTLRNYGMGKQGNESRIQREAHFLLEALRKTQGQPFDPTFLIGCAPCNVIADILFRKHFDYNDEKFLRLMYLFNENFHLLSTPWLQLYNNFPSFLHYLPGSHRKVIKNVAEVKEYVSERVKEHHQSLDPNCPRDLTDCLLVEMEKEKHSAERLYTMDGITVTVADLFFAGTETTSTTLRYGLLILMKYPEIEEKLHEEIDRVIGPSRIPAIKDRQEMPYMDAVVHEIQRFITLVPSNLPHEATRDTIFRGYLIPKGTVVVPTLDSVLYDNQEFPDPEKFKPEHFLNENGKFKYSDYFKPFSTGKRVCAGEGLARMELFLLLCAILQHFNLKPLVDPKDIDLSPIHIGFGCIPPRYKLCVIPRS
T1 sequence (P10635 whole entry): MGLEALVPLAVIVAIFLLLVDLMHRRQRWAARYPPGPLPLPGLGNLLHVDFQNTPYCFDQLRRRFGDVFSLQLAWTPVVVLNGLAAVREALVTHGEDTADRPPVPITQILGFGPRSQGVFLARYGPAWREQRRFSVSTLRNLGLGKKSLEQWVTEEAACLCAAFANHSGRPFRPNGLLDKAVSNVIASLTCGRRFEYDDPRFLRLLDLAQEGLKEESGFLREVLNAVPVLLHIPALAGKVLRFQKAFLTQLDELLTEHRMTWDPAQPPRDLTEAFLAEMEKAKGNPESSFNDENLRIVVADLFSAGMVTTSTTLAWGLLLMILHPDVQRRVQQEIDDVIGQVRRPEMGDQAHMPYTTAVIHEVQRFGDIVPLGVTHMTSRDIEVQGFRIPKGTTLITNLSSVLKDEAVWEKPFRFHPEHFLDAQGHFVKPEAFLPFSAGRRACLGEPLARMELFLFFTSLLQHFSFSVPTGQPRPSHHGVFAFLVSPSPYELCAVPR

In the case of `C[C@@H]1[C@H]2c3cc4c(cc3O[C@@]35OCOC3=CC(=O)[C@H](C[C@H]1C)[C@@H]25)OCO4` [Sauchinone], the IC50 [1] is reported as greater than 300 µM, the IC50 ([2]; 0 min pre-incubation with NADPH, read-out: IC50 on CYP2C19, 0 min inactivation incubation (TDI)) is reported as 28.5 ± 0.267 µM and the IC50 ([2]; IC50 on CYP2C19, 30 min inactivation incubation (TDI), 30 min pre-incubation with NADPH) is reported as 19.4 ± 2.92 µM. For the same molecule, the IC50 shift ([2]; human, human liver microsomes, pH 7.4) was 1.47, the Ki ([3]; sauchinone 20, 50, 200 μM, read-out: Apparent inhibition constant (Ki) for CYP3A4) was 6.84 µM and the “Type of reversible inhibition of CYP3A4 (Dixon plot model)” value ([3]; visual inspection) was “noncompetitive”. For the same molecule, the IC50 ([4]; 0 min pre-incubation with NADPH, 10 min incubation, read-out: IC50 on CYP2D6, 0 min inactivation incubation (TDI)) was greater than 300 µM, the IC50 ([4]; read-out: IC50 on CYP2D6, 30 min inactivation incubation (TDI), 30 min pre-incubation with NADPH, 10 min incubation) was greater than 300 µM and the IC50 [5] was 3.6 ± 2.54 µM. For the same molecule, the IC50 ([6]; 0 min pre-incubation with NADPH, read-out: IC50 on CYP2E1, 0 min inactivation incubation (TDI)) was 105 ± 57 µM, the IC50 ([6]; IC50 on CYP2E1, 30 min inactivation incubation (TDI), 30 min pre-incubation with NADPH) was 5.04 ± 1.91 µM and the IC50 shift at 10 min ([6]; human, human liver microsomes, pH 7.4, probe chlorzoxazone (substrate cocktail set)) was 20.9. The IC50 [7] was greater than 300 µM, the IC50 [8] was 0.458 ± 0.0932 µM and the IC50 ([9]; 0 min pre-incubation with NADPH, read-out: IC50 on CYP2A6, 0 min inactivation incubation (TDI)) was greater than 300 µM. The IC50 ([9]; IC50 on CYP2A6, 30 min inactivation incubation (TDI), 30 min pre-incubation with NADPH) was greater than 300 µM, the IC50 ([10]; 0 min pre-incubation with NADPH, read-out: IC50 on CYP1A2, 0 min inactivation incubation (TDI)) was greater than 300 µM and the IC50 ([10]; IC50 on CYP1A2, 30 min inactivation incubation (TDI), 30 min pre-incubation with NADPH) was greater than 300 µM. The IC50 [11] was 0.207 ± 0.193 µM, the Ki ([12]; sauchinone 20, 50, 200 μM, read-out: Apparent inhibition constant (Ki) for CYP2E1) was 41.7 µM and the “Type of reversible inhibition of CYP2E1 (Dixon plot model)” value ([12]; visual inspection) was “noncompetitive”. For the same molecule, the IC50 ([13]; 0 min pre-incubation with NADPH, read-out: IC50 on CYP2B6, 0 min inactivation incubation (TDI)) was 36.4 ± 27 µM, the IC50 ([13]; IC50 on CYP2B6, 30 min inactivation incubation (TDI), 30 min pre-incubation with NADPH) was 3.93 ± 5.72 µM and the IC50 shift at 10 min ([13]; human, human liver microsomes, pH 7.4, probe bupropion (substrate cocktail set)) was 9.28. For the same molecule, the IC50 [14] was greater than 300 µM, the Ki ([15]; sauchinone 20, 50, 200 μM, read-out: Apparent inhibition constant (Ki) for CYP2C19) was 16.8 µM and the “Type of reversible inhibition of CYP2C19 (Dixon plot model)” value ([15]; visual inspection) was “noncompetitive”. The Ki ([16]; sauchinone 20, 50, 200 μM, read-out: Apparent inhibition constant (Ki) for CYP2B6) was 14.3 µM, the “Type of reversible inhibition of CYP2B6 (Dixon plot model)” value ([16]; visual inspection) was “noncompetitive” and the IC50 ([17]; 0 min pre-incubation with NADPH, read-out: IC50 on CYP2C9, 0 min inactivation incubation (TDI)) was greater than 300 µM. It also gave an IC50 ([17]; IC50 on CYP2C9, 30 min inactivation incubation (TDI), 30 min pre-incubation with NADPH) greater than 300 µM, an IC50 [18] greater than 300 µM and an IC50 ([19]; 0 min pre-incubation with NADPH, read-out: IC50 on CYP3A4, 0 min inactivation incubation (TDI)) of 24.5 ± 51.3 µM. For the same molecule, the IC50 ([19]; IC50 on CYP3A4, 30 min inactivation incubation (TDI), 30 min pre-incubation with NADPH) was 1.14 ± 2.29 µM, the IC50 shift at 10 min ([19]; human, human liver microsomes, pH 7.4, probe testosterone (substrate cocktail set)) was 21.4 and the IC50 [20] was 35.4 µM and 35.8 µM.
